Counter-ions that a name gives are not always drawn. Like-named read-outs stand apart in the source and are kept apart here.
Experiments:
Campylobacter jejuni [1] = assay: Qualitative broth microdilution assay of ultrafiltration and HPLC fractions; type: cell-based; conditions: C18 reverse phase HPLC, 5–80% ACN gradient
Protocol: (§1) A broth microdilution method in 96 well plates was used to obtain qualitative and quantitative measures of antibacterial activity. Qualitatively, 50 μl samples of ESP were added to 50 μl suspensions of Campylobacter jejuni (containing about 5×10^5 cfu, as determined by standard serial dilution and plating) in 96 well plates. Plates were evaluated for growth as indicated by the presence of either turbidity or pellet of bacterial cells in the bottoms of U-shaped wells after 48 hr incubation.
Ultrafiltration. Ultrafiltration methods were used to nominally size fractionate ESP for an approximate determination of the molecular weight of the antibacterial agent(s). AMICON stirred cells under pressurized nitrogen gas were used to separate ESP into fractions above (retentate) and below (filtrate) 30,000 MW with a Millipore YM30 membrane (Millipore) and fractions above (retentate) and below (filtrate) 10,000 MW with a Millipore YM10 membrane. Prior to bioassay, the concentrated retentate fraction was returned to its original volume in RPMI-1640 media to match the volume of the filtrate so that comparisons of relative activity could be made without distortions due to volume differences. […]
High performance liquid chromatography. […] Absorbance of the eluate was monitored at 214 nm, and fractions were collected manually as peaks were detected. […]

Campylobacter jejuni [2] = assay: Heat stability of antibiotics (boiling, then qualitative broth microdilution assay); type: cell-based; conditions: for inactivation of antibiotic by heat treatment: boiling
Protocol: as §1, with “incubation. […] The size of the drug was also taken into consideration. Additionally, an experiment to assess the heat stability of the antibiotics was performed.” for “incubation.”

[3] = n-octanol/water partition coefficient (log PC) of antibiotics; type: physicochemical; conditions: in parentheses beside log PC
Protocol: Consideration of CAP contamination. […] Using the worst-case scenario, the predicted maximum amount of CAP absorbed and how much would be released into the medium if the whipworms dissolved (i.e., released 100%) was estimated. […] It was assumed that the aggregate whipworm volume of these eccentrically shaped nematodes occupied 4% of the incubation well volume (4 whipworms/ml at about 10 μl/whipworm).

[4] = compiled from a drug database at Upjohn; cited from earlier work

Row | Antibacterial activity after boiling (Campylobacter jejuni [2]) | inactivation of antibiotic by heat treatment (Campylobacter jejuni [2]) | Structure (SMILES) | antibacterial activity of HPLC fractions (Campylobacter jejuni [1]) | Concentrating factor [3] | Antibacterial activity after boiling (Campylobacter jejuni [2]; antibiotics (133 concentration) boiled for 10 minutes) | log PC (n-octanol/water partition coefficient) [4]
1 | + | not heat-inactivated | O=C(N[C@H](CO)[C@H](O)c1ccc([N+](=O)[O-])cc1)C(Cl)Cl [Chloramphenicol, chloramphenicol] | one fraction with antibacterial activity |  |  | 
2 | + | boiling did not inactivate | [H]/N=C(/N)N[C@H]1[C@H](O)[C@@H](O)[C@H](O[C@@H]2O[C@@H](C)[C@](O)(C=O)[C@H]2O[C@@H]2O[C@@H](CO)[C@H](O)[C@@H](O)[C@@H]2NC)[C@@H](N/C(N)=N\[H])[C@@H]1O [Streptomycin sulfate] |  |  |  | −9.53

Row | Structure (SMILES) | Antibacterial activity after boiling (Campylobacter jejuni [2]) | inactivation of antibiotic by heat treatment (Campylobacter jejuni [2]) | antibacterial activity of HPLC fractions (Campylobacter jejuni [1]) | Concentrating factor [3] | Antibacterial activity after boiling (Campylobacter jejuni [2]; antibiotics (133 concentration) boiled for 10 minutes) | log PC (n-octanol/water partition coefficient) [4]
3 | CC1(C)S[C@@H]2[C@H](NC(=O)Cc3ccccc3)C(=O)N2[C@H]1C(=O)O [Penicillin G] |  | inactivated by heat treatment |  | (71×) | − | 

— patent US7052874B2, “Detection of antibacterial activity in excretory secretory product of adult Trichuris suis” (priority 2000, dated 2006)
